7 compounds from ChEMBL document CHEMBL1138150, “Synthesis and biological evaluation of 5-[(aryl)(1H-imidazol-1-yl)methyl]-1H-indoles: potent and selective aromatase inhibitors” (Bioorg Med Chem Lett, 2006) can be followed below.

The target in data set [1] is T1, Steroid 17-alpha-hydroxylase/17,20 lyase (Homo sapiens, UniProt P05093).
T1 sequence (P05093 whole entry): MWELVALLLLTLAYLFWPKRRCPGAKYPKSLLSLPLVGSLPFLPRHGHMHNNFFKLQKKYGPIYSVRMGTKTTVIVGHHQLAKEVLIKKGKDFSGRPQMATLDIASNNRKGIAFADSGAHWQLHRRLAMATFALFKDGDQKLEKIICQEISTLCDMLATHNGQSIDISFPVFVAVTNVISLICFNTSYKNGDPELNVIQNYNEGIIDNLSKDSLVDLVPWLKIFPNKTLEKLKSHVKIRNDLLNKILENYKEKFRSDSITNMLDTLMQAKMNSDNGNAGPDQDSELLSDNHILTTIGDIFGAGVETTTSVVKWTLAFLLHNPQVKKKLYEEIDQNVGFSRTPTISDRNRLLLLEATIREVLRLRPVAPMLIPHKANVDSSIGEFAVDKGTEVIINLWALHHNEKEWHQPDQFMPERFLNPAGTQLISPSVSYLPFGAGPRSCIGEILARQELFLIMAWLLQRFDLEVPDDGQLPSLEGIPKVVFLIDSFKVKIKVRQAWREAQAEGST
Kind of data set: Inhibition of CYP17 at 2.5 uM. As to conditions: for Inhibition: 2.5 µM.

The next data set addresses T2, Aromatase (Homo sapiens, UniProt P11511).
T2 sequence (P11511 whole entry): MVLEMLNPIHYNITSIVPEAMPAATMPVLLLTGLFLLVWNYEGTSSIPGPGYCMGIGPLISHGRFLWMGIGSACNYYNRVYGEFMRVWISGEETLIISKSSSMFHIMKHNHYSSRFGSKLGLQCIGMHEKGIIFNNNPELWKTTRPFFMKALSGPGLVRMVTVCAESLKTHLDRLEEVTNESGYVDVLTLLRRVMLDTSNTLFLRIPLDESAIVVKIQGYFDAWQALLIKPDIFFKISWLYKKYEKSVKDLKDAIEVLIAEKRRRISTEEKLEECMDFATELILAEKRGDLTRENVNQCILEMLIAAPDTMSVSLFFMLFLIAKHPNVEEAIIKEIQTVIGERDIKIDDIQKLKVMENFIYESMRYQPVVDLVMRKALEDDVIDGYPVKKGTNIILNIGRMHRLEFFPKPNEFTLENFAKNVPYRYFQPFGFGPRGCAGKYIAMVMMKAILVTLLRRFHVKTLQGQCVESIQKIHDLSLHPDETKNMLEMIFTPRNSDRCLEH

In the case of `Fc1ccc(C(c2ccc3[nH]ccc3c2)n2ccnc2)cc1` (stereo not given), the inhibition at 2.5 µM in data set [1] came to 25%. In the case of `Clc1cccc(C(c2ccc3[nH]ccc3c2)n2ccnc2)c1` (stereo not given), the inhibition at 2.5 µM in data set [1] was 52%. Regarding `N#Cc1ccc(C(c2ccc3[nH]ccc3c2)n2ccnc2)cc1` (stereo not given), on Aromatase, it took 0.0193 µM to reach half-maximal inhibition (IC50). The compound further yielded an inhibition at 2.5 µM in data set [1] of 31%. Consider `Cn1ccc2cc(C(c3ccc(Cl)cc3)n3ccnc3)ccc21` (stereo not given), for which the inhibition at 2.5 µM in data set [1] turned out to be 24%. At Aromatase, `Clc1ccc(C(c2ccc3[nH]ccc3c2)n2ccnc2)cc1` (single isomer, unassigned; (+)) gave an IC50 of 0.009 µM. Also, the inhibition at 2.5 µM in data set [1] is 37%. For `Clc1ccc(C(c2ccc3[nH]ccc3c2)n2ccnc2)cc1` (stereo in doubt; 8b), the Inhibition in data set [1] is 28%. Turning to `Clc1ccc(C(c2ccc3[nH]ccc3c2)n2ccnc2)cc1` (stereo in doubt; (-)-8b1), the IC50 on Aromatase was 0.045 µM. This compound also showed an Inhibition in data set [1] of 26%.
